Source: ChEMBL document CHEMBL3639115, “Benzimidazole inhibitors of leukotriene production” (2014)

Target: T1, Arachidonate 5-lipoxygenase-activating protein (Homo sapiens, UniProt P20292)
T1 sequence (P20292 whole entry): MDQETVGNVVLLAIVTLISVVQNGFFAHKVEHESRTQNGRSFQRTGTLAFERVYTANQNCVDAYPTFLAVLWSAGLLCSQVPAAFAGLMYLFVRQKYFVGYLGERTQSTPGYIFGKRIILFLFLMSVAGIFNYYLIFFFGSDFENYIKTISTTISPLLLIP
Test: Scintillation Proximity Assay: Compounds are assessed for the ability to bind to FLAP in a binding assay that measures compound-specific displacement of an iodinated (125I) FLAP inhibitor via a Scintillation Proximity Assay format (adapted from S. Charleson et al., Mol. Pharmacol., 1992, 41, 873-879).Cell pellets produced from sf9 insect cells expressing recombinant human FLAP protein are resuspended in buffer A [15 mM Tris-HCl (pH 7.5), 2 mM MgCl2, 0.3 mM EDTA, 1 mM PMSF]. The cells are lysed with a Dounce homogenizer and the material is centrifuged at 10,000xg for 10 minutes. The supernatant is then collected and centrifuged at 100,000xg for 60 minutes. To prepare membrane protein for an assay, an aliquot of the 100,000xg pellet is resuspended in 1 ml of buffer A, Dounce homogenized, and finally subjected to polytron mixing (30 seconds). Membrane protein (25 ul, 5 ug) is mixed with WGA SPA beads (Amersham) and stirred for 1 h. To an assay plate (Perkin Elmer FlexiPlate) is added 25 ul of test compound.

IC50: 0.0354 µM
SMILES: CC(C)(C)n1c(-c2ccccc2C(N)=O)nc2cc(-c3cnc(N)nc3)ccc21
